pIC50: −log10 of the molar value.
Target: T1, Pancreatic Lipase (Sus scrofa, UniProt P00591)
T1 construct: purchased Sigma L-3126
T1 sequence (P00591 1-450): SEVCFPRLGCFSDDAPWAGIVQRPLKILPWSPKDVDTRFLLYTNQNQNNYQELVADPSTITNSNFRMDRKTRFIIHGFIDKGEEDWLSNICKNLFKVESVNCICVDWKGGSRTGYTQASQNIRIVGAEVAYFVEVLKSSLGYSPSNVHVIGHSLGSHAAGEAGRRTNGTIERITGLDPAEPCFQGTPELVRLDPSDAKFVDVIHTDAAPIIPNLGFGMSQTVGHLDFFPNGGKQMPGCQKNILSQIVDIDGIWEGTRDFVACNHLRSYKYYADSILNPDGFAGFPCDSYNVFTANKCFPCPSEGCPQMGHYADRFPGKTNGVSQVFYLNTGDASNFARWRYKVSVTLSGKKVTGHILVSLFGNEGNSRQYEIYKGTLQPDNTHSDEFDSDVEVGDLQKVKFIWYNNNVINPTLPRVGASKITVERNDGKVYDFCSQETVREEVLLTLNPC
Test: Pancreatic lipase inhibition assay (p-nitro phenol palmitate substrate, 96-well)
Format: biochemical
Settings: for pIC50: dose range 6.25 μM-200 μM, interpolated by linear regression; for inhibition at 100 µM / inhibition at 200 µM: pancreatic lipase, 37° C., OD 405 nm; for inhibition at 100 µM: compound 100 μM; for inhibition at 200 µM: compound 200 μM
Procedure: (§1) Preparation of test samples: Structures #2-#19 were dissolved in 1 mL DMSO to obtain a 10 mM stock solution, and were vortexed to dissolution and stored at 4° C. The various concentration of working samples were prepared in 0.2 M phosphate buffer, pH-8.0. This sample was used as test sample for all further assays.
Lipase assay: Lipase assay was performed by method described by Winkler and Stuckmann, 1979, with modification. (Winkler, U. K. & Stuckmann, M. Glycogen, hyaluronate, and some other polysaccharides greatly enhance the formation of exolipase by Serratia marcescens. J. Bacteriol. 138: 663-670 (1979)) Assay was designed, using a 96-well format. The substrate used in this assay was p-nitro phenol palmitate (Sigma, Cat No-N-2752). 4.5 mg of p-nitro phenol palmitate was dissolved in 200 μl of N,N-dimethyl formamide (Sigma, Cat No, D-4551) and volume made up to 10 ml with 0.1 M pH 8.0 phosphate buffer. Pancreatic Lipase (Sigma, Cat No. L-3126) sample was prepared by dissolving the enzyme in 0.1M phosphate buffer at a concentration of 5 mg/ml. The reaction mixture consisted of 150 μl substrate solution; 40 μl phosphate buffer (pH 8.0, 0.2 M) and 10 μl lipase solution. The reaction mixture was incubated at 37° C. and optical density was measured at 405 nm after incubation. Enzyme activity was presented in the form of international unit (IU).
Lipase activity: One enzyme unit of lipase is defined as that quantity releasing 1 nm of free phenol from the substrate (p-nitro phenol palmitate) per min per ml under the standard assay condition (Winkler and Stuckmann, 1979; Yadav R P, Saxena R K, Gupta R. Davidson W S., Purification and characterization of a region-specific lipase from Aspergillus terreus. Biotechnol. Appl. Biochem. (1998) 28, (243-249)). It is derived from standard graph of p-nitro phenol (Sigma, 104-8).
(§2) Lipase inhibition assay: Enzyme inhibition assay was performed in a dose dependent manner. The concentration of the synthetic analogs checked were 100 μM & 200 μM. The assay was similar to assay described above except 40 μl of test sample was used instead of phosphate buffer in control. Optical density was measured at 0 hr and following incubation at 37° C.
Enzyme Inhibition: Enzyme inhibition was presented in the term of relative activity and percentage inhibition simply on the basis of change in international unit (IU).
as §1, with “Synthetic analogues” for “Structures #2-#19”, “ml” for “mL”, “solution. The samples” for “solution, and”, “O.2” for “0.2”
as §2, with “6.25 μM-200” for “100 μM & 200”, “C. The enzyme activity was measured in terms of international unit (IU).” for “C.”
Lipase activity: One enzyme unit of lipase is defined as that quantity releasing 1 nm of free phenol from the substrate (p-nitro phenol palmitate)/min per ml under standard assay conditions. It is derived from standard graph of p-nitro phenol (Sigma, 104-8)
Percent Inhibition: Enzyme inhibition was presented in the term of % inhibition simply on the basis of change in international unit (IU).
The value of IC50 was derived from linear regression. The value derived is based on interpolated data.

| SMILES | pIC50 | inhibition at 100 µM [%] | inhibition at 200 µM [%] |
| --- | --- | --- | --- |
| CCCCCCCCCCCC1=C(OC(=O)c2ccccc2Br)C(=O)C=C(OC(=O)c2ccccc2Br)C1=O [Structure #5, 2,5-bis-(2-bromophenylcarbonyloxy)-3-undecyl-1,4-benzoquinone] | 4.96 | 100 | 100 |
| CCCCCCCCCCCC1=C(OC(=O)c2ccccc2Cl)C(=O)C=C(OC(=O)c2ccccc2Cl)C1=O [Structure #8, 2,5-bis-(2-chlorophenylcarbonyloxy)-3-undecyl-1,4-benzoquinone] | 4.69 | 100 | 100 |
| CCCCCCCCCCCC1=C(OC(=O)c2ccc(Br)cc2)C(=O)C=C(OC(=O)c2ccc(Br)cc2)C1=O [Structure #10, 2,5-bis-(4-bromophenylcarbonyloxy)-3-undecyl-1,4-benzoquinone] | 4.63 | 87.5 | 97 |
| CCCCCCCCCCCC1=C(OC(=O)c2ccc(C)cc2)C(=O)C=C(OC(=O)c2ccc(C)cc2)C1=O [Structure #12, 2,5-bis-(4-methylphenylcarbonyloxy)-3-undecyl-1,4-benzoquinone] | 4.38 | 88.5 | 99.1 |
| CCCCCCCCCCCC1=C(OC(=O)c2cccc(C)c2)C(=O)C=C(OC(=O)c2cccc(C)c2)C1=O [Structure #13, 2,5-bis-(3-methylphenylcarbonyloxy)-3-undecyl-1,4-benzoquinone] | 4.35 | 100 | 100 |
| CCCCCCCCCCCC1=C(OC(=O)c2ccc(F)cc2)C(=O)C=C(OC(=O)c2ccc(F)cc2)C1=O [Structure #16, 2,5-bis-(4-fluorophenylcarbonyloxy)-3-undecyl-1,4-benzoquinone] | 4.14 | 89.5 | 100 |
| CCCCCCCCCCCC1=C(OC(=O)c2cccc(OC)c2)C(=O)C=C(OC(=O)c2cccc(OC)c2)C1=O [Structure #17, 2,5-bis-(3-methoxyphenylcarbonyloxy)-3-undecyl-1,4-benzoquinone] | 4.09 | 78.3 | 96.5 |

The remaining lines, values ahead:

| pIC50 | inhibition at 100 µM [%] | inhibition at 200 µM [%] | SMILES |
| --- | --- | --- | --- |
| > 5.20 | 99.5 | 99.2 | CCCCCCCCCCCC1=C(OC(=O)c2ccc(C(C)(C)C)cc2)C(=O)C=C(OC(=O)c2ccc(C(C)(C)C)cc2)C1=O [Structure #3, 2,5-bis-(4-tert-butylphenylcarbonyloxy)-3-undecyl-1,4-benzoquinone] |
| 4.87 | 100 | 100 | CCCCCCCCCCCC1=C(OC(=O)c2cccc(Br)c2)C(=O)C=C(OC(=O)c2cccc(Br)c2)C1=O [Structure #6, 2,5-bis-(3-bromophenylcarbonyloxy)-3-undecyl-1,4-benzoquinone] |
| 4.78 | 100 | 100 | CCCCCCCCCCCC1=C(OC(=O)c2cccc(Cl)c2)C(=O)C=C(OC(=O)c2cccc(Cl)c2)C1=O [Structure #7, 2,5-bis-(3-chlorophenylcarbonyloxy)-3-undecyl-1,4-benzoquinone] |
| 4.64 | 98.4 | 100 | CCCCCCCCCCCC1=C(OC(=O)c2ccc(Cl)cc2)C(=O)C=C(OC(=O)c2ccc(Cl)cc2)C1=O [Structure #9, 2,5-bis-(4-chlorophenylcarbonyloxy)-3-undecyl-1,4-benzoquinone] |
| 4.34 | 65.9 | 61.3 | CCCCCCCCCCCC1=C(OC(=O)c2ccccc2[N+](=O)[O-])C(=O)C=C(OC(=O)c2ccccc2[N+](=O)[O-])C1=O [Structure #14, 2,5-bis-(2-nitrophenylcarbonyloxy)-3-undecyl-1,4-benzoquinone] |
| 4.26 | 100 | 100 | CCCCCCCCCCCC1=C(OC(=O)c2ccccc2)C(=O)C=C(OC(=O)c2ccccc2)C1=O [Structure #15, 2,5-bis-(phenylcarbonyloxy)-3-undecyl-1,4-benzoquinone] |

From patent US7355055B2, “Compounds for treatment of lipase-mediated diseases” (Reliance Life Sciences Pvt. Ltd., priority 2005, dated 2008)
